In patent publication US20060165821A1, “Composition comprising scutellaria baicalensis and their uses thereof” (priority 2002, published 2006):

How the values were obtained:
PGE2 = PGE2 in articular fluid of rats with adjuvant arthritis (ELISA); assay type: in vivo; details: end of experiment, X ± SD, n = 6
Source text: (§1) Osteoarthritis is characterized by articular cartilage degradation and hypertrophic joint changes. Pro-inflammatory cytokines (IL-1, IL-6, TNF-α) are considered to play important roles in the initiation and development of osteoarthritis (Inoue et al. British Journal of Pharmacology 136:287-295 (2002)). Prostaglandin (PG) E2 has catabolic effects on the articular cartilage in OA (Futani et al J Immunother 2002 1;25(0):S61-S64). Therefore, we measured IL-6 and PGE2 in rats' blood with adjuvant-induced arthritis treated with Scutellaria baicalensis formula using ELISA assay. At the end of the experiment in Example 4.1, IL-6 in serum and PGE2 in articular fluid were assessed.

[1] = Paw edema induced by Freund's complete adjuvant in rats; assay type: in vivo, Wistar rats; details: X ± SD, n = 6, oral gavage once per day
Procedure: The anti-arthritic activity of Scutellaria baicalensis formula was confirmed in animal study. Eight week-old male Wistar rats were received intradermal injections of 0.1 ml Freund's complete adjuvant (FCA, 7.5 mg/ml) to the paw of the right hindfood. At 14 days, paw edema was induced and rats were randomized into three groups (n=6) including control group, Scutellaria baicalensis formula group (30 mg/kg of Scutellaria baicalensis, 10 mg/kg of Glucosamine and 8 mg/kg of Chondroitin) and indomethacin group (12.5 mg/kg) which serves as a positive control. The treatment groups were given Scutellaria baicalensis formula or indomethacin by oral gavage once per day for a duration of 10 days. The diameters of paw were measured at 16, 20 and 24 days.

IL-6 = IL-6 in serum of rats with adjuvant arthritis (ELISA); assay type: in vivo; details: end of experiment, X ± SD, n = 6
Source text: as §1

SCC-25 cells = experiment: Previously determined IC50 of celecoxib; assay type: cell-based; details: Homo sapiens, quantity inhibited not stated
Procedure: Benzo[a]pyrene (BaP), one of the compounds released from smoking, is a prototypical carcinogen. It is a polycyclic aromatic hydrocarbon (PAH) compound and is found in high quantity (20-40 ng) in each cigarette. BaP is metabolized and activated to become the ultimate carcinogenic metabolite [(+)-anti-7b,8a-dihydroxy-9a,10a-epoxy-7,8,9,10-tetrahydorbenzo[a]pyrene], also known as BPDE. […] We examined the counter-stimulatory effect of Scutellaria baicalensis on BaP-induced COX-2 activity. After the treating SCC-25 cells with BaP for 6 hours, the supernatants were removed and the cells were washed with PBS. […] This situation resembles the chemoprevention in the former smokers.

[2] = mice or rats; 500 mg/kg oral, 3000 mg/kg IM, 1500 mk/kg IV; cited from earlier work
[3] = following an oral dose; cited from earlier work

## COc1ccc2c(c1)c(CC(=O)O)c(C)n2C(=O)c1ccc(Cl)cc1 [Indomethacin]
PGE2
  PGE2: 6.00 ± 3.1 pg/mL
[1]; 16 d
  changes of paw edema: 0.929 ± 0.214
[1]; 20 d
  changes of paw edema: 0.771 ± 0.160
[1]; 24 d
  changes of paw edema: 0.400 ± 0.245
IL-6
  IL-6: 6.0 ± 3.1 pg/mL

## Cc1ccc(-c2cc(C(F)(F)F)nn2-c2ccc(S(N)(=O)=O)cc2)cc1 [celecoxib]
SCC-25 cells
  IC50: 25 µM

## N[C@H]1C(O)O[C@H](CO)[C@@H](O)[C@@H]1O.O=S(=O)(O)O (some centres unmarked) [glucosamine sulfate]
[2]
  mortality: No mortality

## Chondroitin sulfate
[3]
  tolerability / signs or symptoms of toxicity: well tolerated
